Experimental data as given in PMC3242598, “Phase I study of BIBF 1120 with docetaxel and prednisone in metastatic chemo-naive hormone-refractory prostate cancer patients” (British Journal of Cancer, 2011).
Where two headings read alike, the source gives them in different places.

Experiments:
[1] = Plasma pharmacokinetics of docetaxel (HPLC-MS/MS); assay type: in vivo; conditions: human, docetaxel 75 mg m^−2 IV + BIBF 1120 250 mg BID; for half-life: read-out: t1/2, gMean (gCV%) (converted); for Tmax / AUC(0-inf) / Cmax: iv; for Tmax: read-out: tmax, median and range; for AUC(0-inf): read-out: AUC0−∞, gMean (gCV%); for Cmax: read-out: Cmax, gMean (gCV%)
Method: Peripheral blood was collected on days 1, 2, 3, 8, and 15 of TCs 1 and 2, and on days 2 and 15 of TCs 3–6 to perform the PK/pharmacodynamic (PD) analysis. Plasma concentrations of BIBF 1120 were determined after the first dose over the time interval 0–24 h on day 2 of TCs 1 and 2 to investigate single-dose PK characteristics of BIBF 1120 on the day after administration of single doses of docetaxel. Levels of BIBF 1120 were also determined on days 8 and 15 of TCs 1 and 2 to investigate steady-state levels.
Plasma concentrations of BIBF 1120 and docetaxel were analysed by a validated method using high-performance liquid chromatography coupled with tandem mass spectrometry (HPLC-MS/MS) in the Department of Drug Metabolism and Pharmacokinetics (Boehringer Ingelheim Pharma GmbH & Co KG, Biberach, Germany). The assay comprises sample clean-up by automated solid-phase extraction in a 96-well plate format. Chromatography was achieved on an analytical C18 reversed phase HPLC column with gradient elution. The substance was detected and quantified by HPLC-MS/MS using electrospray ionisation in the positive ion mode. Docetaxel was analysed by HPLC-MS/MS using paclitaxel as an internal standard. The assay comprises sample clean-up by liquid–liquid extraction and chromatography on an analytical C18 reversed phase HPLC column with isocratic elution. […] The lower limit of quantification for BIBF 1120 and metabolites was 0.5 ng ml^−1 plasma, using a plasma volume of 200 μl. For docetaxel, the lower limit was 2.5 ng ml^−1 plasma, using a plasma volume of 100 μl.
The calculated parameters were plasmatic peak concentrations following the first dose (Cmax), half-life time (t1/2), area under the plasma concentration–time curve (AUCt), apparent clearance after oral administration, and apparent volume of distribution during the terminal phase.

HRPC = conditions: cited from earlier work

SMILES | half-life ([1]; treatment cycle 2 (n=12)) [h] | Tmax ([1]; treatment cycle 1 (n=12)) [h] | Tmax ([1]; treatment cycle 2 (n=12)) [h] | half-life ([1]; male, treatment cycle 1 (n=12)) [h] | AUC(0-inf) ([1]; male, treatment cycle 1 (n=12)) [ng·h/mL] | Cmax ([1]; male, treatment cycle 1 (n=12)) [ng/mL] | AUC(0-inf) ([1]; male, treatment cycle 2 (n=12)) [ng·h/mL] | Cmax ([1]; male, treatment cycle 2 (n=12)) [ng/mL] | PSA responses (HRPC; docetaxel monotherapy or with estramustine, phase III, first-line metastatic HRPC, ref Petrylak et al, 2004, Tannock et al) | Median survival (HRPC; docetaxel with corticosteroid in HRPC, ref Petrylak et al, 2004, Tannock et al, Berthold et al, 2008) [months] | PSA response rates (HRPC; HRPC patients, ref Chi et al, 2008, Dror Michaelson et al, 2009, Sonpavde et al, 2010)
CC(=O)O[C@@]12CO[C@@H]1C[C@H](O)[C@@]1(C)C(=O)[C@H](O)C3=C(C)[C@@H](OC(=O)[C@H](O)[C@@H](NC(=O)OC(C)(C)C)c4ccccc4)C[C@@](O)([C@@H](OC(=O)c4ccccc4)[C@H]21)C3(C)C [docetaxel] | 19.4 | 1.02 | 1.01 | 20.2 | 1860 | 1510 | 2460 | 1980 | 45–50% | < 20 | –
CCN(CC)CCNC(=O)c1c(C)[nH]c(/C=C2\C(=O)Nc3ccc(F)cc32)c1C [sunitinib] | – | – | – | – | – | – | – | – | – | – | 3.6–12.1%
